Test results: the NIST ThermoML archive (doi:10.1021/acs.jced.7b00507)
Numbers after ± are expanded uncertainties.

Test: mn = molality of the nth substance listed, in mol/kg
Conditions: 100 kPa, Liquid, Pycnometric method

mass density (293.15 K, m1 = 0.6199)	mass density (303.15 K, m1 = 0.8756)	mass density (313.15 K, m1 = 1.222)	mass density (323.15 K, m1 = 1.908)	SMILES	mass density (293.15 K, m1 = 3.129)	mass density (303.15 K, m1 = 4.532)	mass density (313.15 K, m1 = 6.615)	mass density (323.15 K, m1 = 8.465)
–	–	–	–	O=[N+]([O-])[O-].[K+] [potassium nitrate] + O	1167 ± 12 kg/m3	1217.1 ± 12 kg/m3	1269.4 ± 13 kg/m3	1321 ± 14 kg/m3
1060.4 ± 11 kg/m3	1081.6 ± 11 kg/m3	1111 ± 11 kg/m3	1156 ± 12 kg/m3	[K+].[O]=[V](=[O])[O-] [potassium vanadate] + O	–	–	–	–
